This is an account of results in PMC12045974, “T cell toxicity induced by tigecycline binding to the mitochondrial ribosome” (Nature Communications, 2025).

Molecules are shown by their SMILES.

The assay has as its system 55S mitochondrial ribosomes (mitoribosomes) from Jurkat T cells. Put plainly: Single-particle cryo-EM of mitoribosome-tigecycline complex. Type of assay: binding, human. The conditions noted are these: 30 µM. The procedure:
Jurkat T cells were grown in RPM1-1640 medium ( + 10% FBS, 2.05 mM L-glutamine (Sigma), and 55 μM 2-ME (Gibco)) in a vented flask shaking at 120 rpm at 37 °C under 5% CO2. The culture was scaled up by splitting at a cell density of 1.6 × 10^6 cells/ml. A final volume of 1.5-liter cells at a density of 1 × 10^6 cells/ml was harvested by centrifugation at 1000 x g for 10 min at 4 °C. After being washed with cold PBS buffer, the cell pellet was resuspended in the cold hypotonic MSE buffer (with 0.6 M mannitol, 10 mM Tris–HCl pH 7.4, 1 mM EDTA, 0.1% BSA), and ruptured on ice by a semi-automatic homogenizer (Schuett-biotech). The lysate was clarified by centrifugation at 400 x g and 4 °C for 10 min. The pellet was resuspended and subsequently homogenized. After 3 cycles of homogenization-centrifugation, the cell lysates were combined and the mitochondria were pelleted by additional centrifugation at 11,000 x g and 4 °C for 10 min. […]
The purified mitochondria were thawed and lysed by incubating at 4 °C for 30 min in the lysis buffer (25 mM HEPES–KOH pH 7.5, 20 mM Mg(OAc)2, 50 mM KCl, 2% (vol/vol) Triton X-100, 2 mM Dithiothreitol (DTT), 1× cOmplete EDTA-free protease inhibitor cocktail (Roche), 40 U/μl RNase inhibitor (Invitrogen)). […] The concentration of the purified monosomes was quantified by nanodrop. […]

As for `CN(C)c1cc(NC(=O)CNC(C)(C)C)c(O)c2c1C[C@H]1C[C@H]3[C@H](N(C)C)C(O)=C(C(N)=O)C(=O)[C@@]3(O)C(O)=C1C2=O` [Tigecycline, tigecycline], the “occupancy on the mitoribosome” value (mtSSU and mtLSU site-1, P-site-only class) is recorded as “exceeding 80%”. For the same compound, the “binding sites on the mitoribosome” value (one on the mtSSU, two on the mtLSU) was “three densities corresponding to tigecycline molecules”.
